Tested on: rats which had sustained dynorphin-induced spinal cord injury
Experiment: In vivo assay on dynorphin-induced spinal cord injury
Set-up: species or system Sprague-Dawley rats
Experimental: Dynorphin-induced spinal cord injury was performed according to Long et al., JPET, Vol. 269, No. 1, pp. 358-366 (1993). In brief, spinal subarachnoid injections were delivered using 30-gauge needles inserted between the L4-L5 vertebrae of male Sprague-Dawley rats (300-350 g). The rats were anesthetized with halothane and dorsal midline incisions were made immediately rostral to the pelvic girdle. By using the vertebral processes as guides, the needle was advanced to pass into the subarachnoid space surrounding the cauda equina. Correct needle pement was verified by CSF from the needle after its insertion. […] After injections, the incisions were treated with the topical antibacterial furazolidone and closed with wound clips. […]
Neurological function was evaluated using a 5-point ordinal scale, with scores being assigned as follows: 4=normal motor function; 3=mild paraparesis, with the ability to support weight and walk with impairment; 2=paraparesis, with the ability to make walking movements without fully supporting weight; 1=severe paraparesis, in which rats could make limited hind limb movement, but not walking movement; and 0=flaccid paralysis, with complete absence of any hind limb movement. […]
Differences in the neurological scores among treatment groups were determined by means of the Mann-Whitney U test or the Kruskal-Wallis test.

Question: Which “motor scores (in words)” value (co-administered with dynorphin A, 24-hour post-injection, vs vehicle, p<0.05) does the source give for `O=C(O)CCC(CP(=O)(O)O)C(=O)O` (centres unmarked) [2-(phosphonomethyl)pentanedioic acid] here?
Answer: The value was “significant improvement in motor scores”.

Question: And the rats ambulatory (co-treated with dynorphin A, 24 hours post-injection, 15 rats)?
Answer: Its rats ambulatory is 73%.

Source: US6413948B1, “Pharmaceutical compositions and methods of effecting a neuronal activity in an animal using naaladase inhibitors” (Guilford Pharmaceuticals Inc., priority 1996, dated 2002)
